Results: patent US20050208496A1, “Methods of testing for bronchial asthma or chronic obstructive pulmonary disease” (Genox Research, Inc., priority 2002, published 2005)

Tested on: mouse counterpart genes
Test: Mouse GeneChip (MG-U74A to MG-U74C) analysis of lung and trachea of the OVA antigen-exposed bronchial hypersensitivity model, S-Sal group versus S-OVA group
Assay type: in vivo
[1] = S-Sal group vs S-OVA group, chip B, 1st
[2] = S-Sal group vs S-OVA group, chip B, 2nd
[3] = S-Sal group vs S-OVA group, chip B, 3rd
[4] = S-Sal group vs S-OVA group, chip C, 1st
[5] = S-Sal group vs S-OVA group, chip C, 2nd
[6] = S-Sal group vs S-OVA group, chip C, 3rd
[7] = S-Sal vs S-OVA group, 1st, P/A: A
[8] = S-Sal vs S-OVA group, 1st, P/A: M
[9] = S-Sal vs S-OVA group, 1st, P/A: P
[10] = S-Sal vs S-OVA group, 2nd, P/A: A
[11] = S-Sal vs S-OVA group, 2nd, P/A: P

For “ovalbumin [OVA antigen, ovalbumin antigen used for sensitization and inhalation to induce bronchial hypersensitivity in mice]”, the “Fold Change, SAM domain and HD domain, 1 (mouse Probe ID 109915_at)” value (from here on “Fold Change, SAM domain and HD domain”) [1] was 1.2, the “Fold Change, Similar to dihydropyrimidine dehydrogenase, clone MGC: 37940 (mouse Probe ID 111949_at)” value (from here on “Fold Change … (mouse Probe ID 111949_at)”) [1] was 0.588 and the “Fold Change, Similar to guanylate nucleotide binding protein 3, clone MGC: 6385 (mouse Probe ID 107939_at)” value (“Fold Change … (mouse Probe ID 107939_at)” for short) [1] was 1.9. The “Fold Change, procollagen lysine, 2-oxoglutarate 5-dioxygenase 2 (mouse Probe ID 114376_at)” value [1] was 0.833, the “Fold Change, thioredoxin reductase 1 (mouse Probe ID 162642_at)” value [1] was 0.323 and the “Fold Change, ESTs AI844322 (mouse Probe ID 110469_at)” value [2] was 0.833. For the same substance, the “Fold Change, RIKEN cDNA 2610017M01 gene (mouse Probe ID 105606_at)” value [2] was 0.5, the “Fold Change, RIKEN cDNA 2610017M01 gene (mouse Probe ID 163053_at)” value [2] was 0.833 and the “Fold Change, SAM domain and HD domain” value [2] was 0.303. For the same substance, the “Fold Change … (mouse Probe ID 111949_at)” value [2] was 0.588, the “Fold Change … (mouse Probe ID 107939_at)” value [2] was 1.2 and the “Fold Change, growth arrest and DNA-damage-inducible 45 gamma (mouse Probe ID 109336_at)” value [2] was 1.7. The “Fold Change, procollagen lysine, 2-oxoglutarate 5-dioxygenase 2 (mouse Probe ID 114376_at)” value [2] was 1.1, the “Fold Change, thioredoxin reductase 1 (mouse Probe ID 162642_at)” value [2] was 2.8 and the “Fold Change, RIKEN cDNA 2610017M01 gene (mouse Probe ID 105606_at)” value [3] was 0.667. The “Fold Change, RIKEN cDNA 2610017M01 gene (mouse Probe ID 163053_at)” value [3] was 1.2, the “Fold Change, SAM domain and HD domain” value [3] was 1.1 and the “Fold Change … (mouse Probe ID 111949_at)” value [3] was 0.833. The “Fold Change … (mouse Probe ID 107939_at)” value [3] was 0.833, the “Fold Change, thioredoxin reductase 1 (mouse Probe ID 162642_at)” value [3] was 0.588 and the “Fold Change, RIKEN cDNA 6330404C01 gene (mouse Probe ID 166590_at)” value [4] was 2. The “Fold Change, expressed sequence AV022454 (mouse Probe ID 165678_i_at)” value (“Fold Change, expressed sequence AV022454” for short) [4] was 1.3, the “Fold Change, interferon-induced protein with tetratricopeptide repeats 1 (mouse Probe ID 168299_f_at)” value (shortened to “Fold Change, interferon-induced protein”) [4] was 1.3 and the “Fold Change, small inducible cytokine subfamily B (Cys-X-Cys), member 11 (mouse Probe ID 140659_at)” value (“Fold Change … (mouse Probe ID 140659_at)” for short) [4] was 3.8. For the same substance, the “Fold Change, RIKEN cDNA 6330404C01 gene (mouse Probe ID 166590_at)” value [5] was 1, the “Fold Change, expressed sequence AV022454” value [5] was 1.3 and the “Fold Change, hydroxysteroid (17-beta) dehydrogenase 2 (mouse Probe ID 166141_i_at)” value [5] was 0.526. For the same substance, the “Fold Change, interferon-induced protein” value [5] was 1.1, the “Fold Change, sialyltransferase 1 (beta-galactoside alpha-2,6-sialyltransferase) (mouse Probe ID 167200_r_at)” value [5] was 1.6 and the “Fold Change … (mouse Probe ID 140659_at)” value [5] was 2. For the same substance, the “Fold Change, expressed sequence AV022454” value [6] was 2.2, the “Fold Change, hydroxysteroid (17-beta) dehydrogenase 2 (mouse Probe ID 166141_i_at)” value [6] was 1.9 and the “Fold Change, hydroxysteroid (17-beta) dehydrogenase 2 (mouse Probe ID 169670_at)” value [6] was 0.385. The “Fold Change, interferon-induced protein” value [6] was 1.2, the “Fold Change … (mouse Probe ID 140659_at)” value [6] was 1 and the “Fold Change, DNA-damage inducible transcript 3 (mouse Probe ID 101429_at)” value [7] was 0.37. The “Fold Change, RAS guanyl releasing protein 1 (mouse Probe ID 98307_at)” value [7] was 0.5, the “Fold Change, RAS guanyl releasing protein 1 (mouse Probe ID 167498_i_at)” value [7] was 0.833 and the “Fold Change, RIKEN cDNA A2301D9K23 gene (mouse Probe ID 163453_at)” value [7] was 1.6. The “Fold Change, RIKEN cDNA A2301D9K23 gene (mouse Probe ID 166475_r_at)” value [7] was 1.2, the “Fold Change, acid phosphatase 5, tartrate resistant (mouse Probe ID 162543_r_at)” value [7] was 4.3 and the “Fold Change, cathepsin C (mouse Probe ID 101020_at)” value [7] was 1.8. The “Fold Change, cathepsin C (mouse Probe ID 161251_f_at)” value [7] was 0.667, the “Fold Change, cytokine inducible SH2-containing protein 1 (mouse Probe ID 92832_at)” value [7] was 1.6 and the “Fold Change, dual specificity phosphatase 14 (mouse Probe ID 165144_r_at)” value [7] was 0.5. For the same substance, the “Fold Change, dual specificity phosphatase 14 (mouse Probe ID 171285_at)” value [7] was 1.7, the “Fold Change, fetuin beta (mouse Probe ID 108524_at)” value [7] was 1.2 and the “Fold Change, keratin complex 1, acidic, gene 16 (mouse Probe ID 103589_at)” value [7] was 1.8. For the same substance, the “Fold Change, keratin complex 1, acidic, gene 16 (mouse Probe ID 164428_i_at)” value [7] was 1.5, the “Fold Change, nuclear factor, interleukin 3, regulated (mouse Probe ID 164758_i_at)” value [7] was 1.4 and the “Fold Change, serine (or cysteine) proteinase inhibitor, clade B (ovalbumin), member 2 (mouse Probe ID 137166_r_at)” value [7] was 0.667. For the same substance, the “Fold Change, transmembrane 4 superfamily member 8 (mouse Probe ID 97912_at)” value [7] was 3.6, the “Fold Change, ubiquitin D (mouse Probe ID 169362_f_at)” value [7] was 1.2 and the “Fold Change, neutrophil cytosolic factor 2 (mouse Probe ID 102326_at)” value [8] was 2. For the same substance, the “Fold Change, ubiquitin fusion degradation 1 like (mouse Probe ID 93303_at)” value [8] was 0.567, the “Fold Change, DEAD (aspartate-glutamate-alanine-aspartate) box polypeptide 5 (mouse Probe ID 93493_at)” value [9] was 1 and the “Fold Change, DEAD (aspartate-glutamate-alanine-aspartate) box polypeptide 5 (mouse Probe ID 113899_at)” value [9] was 0.909. The “Fold Change, RIKEN cDNA 4933419D20 gene (mouse Probe ID 97442_at)” value [9] was 1.2, the “Fold Change, RIKEN cDNA 4933419D20 gene (mouse Probe ID 112237_at)” value [9] was 1.1 and the “Fold Change, cathepsin C (mouse Probe ID 101019_at)” value [9] was 1.2. The “Fold Change, dual specificity phosphatase 14 (mouse Probe ID 162702_at)” value [9] was 1.2, the “Fold Change, expressed sequence AI463430 (mouse Probe ID 112883_at)” value [9] was 1 and the “Fold Change, fatty acid binding protein 4, adipocyte (mouse Probe ID 100567_at)” value [9] was 0.556. The “Fold Change, integrin-associated protein (mouse Probe ID 103611_at)” value [9] was 1, the “Fold Change, ribosomal protein S16 (mouse Probe ID 97647_at)” value [9] was 1 and the “Fold Change, ribosomal protein S16 (mouse Probe ID 169860_r_at)” value [9] was 33. For the same substance, the “Fold Change, serine (or cysteine) proteinase inhibitor, clade B (ovalbumin), member 2 (mouse Probe ID 92978_s_at)” value [9] was 2.1, the “Fold Change, serine (or cysteine) proteinase inhibitor, clade B (ovalbumin), member 6 (mouse Probe ID 96060_at)” value [9] was 1.1 and the “Fold Change, signal transducer and activator of transcription 1 (mouse Probe ID 101465_at)” value [9] was 1.8. For the same substance, the “Fold Change, signal transducer and activator of transcription 1 (mouse Probe ID 114635_at)” value [9] was 2, the “Fold Change, ubiquitin D (mouse Probe ID 168938_r_at)” value [9] was 1.4 and the “Fold Change, DNA-damage inducible transcript 3 (mouse Probe ID 101429_at)” value [10] was 0.526. For the same substance, the “Fold Change, RAS guanyl releasing protein 1 (mouse Probe ID 167498_i_at)” value [10] was 1.6, the “Fold Change, RIKEN cDNA A2301D9K23 gene (mouse Probe ID 163453_at)” value [10] was 1.4 and the “Fold Change, RIKEN cDNA A2301D9K23 gene (mouse Probe ID 166475_r_at)” value [10] was 0.556. For the same substance, the “Fold Change, acid phosphatase 5, tartrate resistant (mouse Probe ID 162543_r_at)” value [10] was 6.8, the “Fold Change, cathepsin C (mouse Probe ID 101020_at)” value [10] was 0.625 and the “Fold Change, cathepsin C (mouse Probe ID 161251_f_at)” value [10] was 1. For the same substance, the “Fold Change, cytokine inducible SH2-containing protein 1 (mouse Probe ID 92832_at)” value [10] was 1.9, the “Fold Change, dual specificity phosphatase 14 (mouse Probe ID 165144_r_at)” value [10] was 0.833 and the “Fold Change, fetuin beta (mouse Probe ID 108524_at)” value [10] was 0.278. For the same substance, the “Fold Change, keratin complex 1, acidic, gene 16 (mouse Probe ID 103589_at)” value [10] was 1.3, the “Fold Change, keratin complex 1, acidic, gene 16 (mouse Probe ID 164428_i_at)” value [10] was 1.6 and the “Fold Change, ribosomal protein S16 (mouse Probe ID 169860_r_at)” value [10] was 1.4. The “Fold Change, serine (or cysteine) proteinase inhibitor, clade B (ovalbumin), member 2 (mouse Probe ID 137166_r_at)” value [10] was 0.667, the “Fold Change, transmembrane 4 superfamily member 8 (mouse Probe ID 97912_at)” value [10] was 1 and the “Fold Change, ubiquitin D (mouse Probe ID 92715_at)” value [10] was 0.455. For the same substance, the “Fold Change, ubiquitin D (mouse Probe ID 168938_r_at)” value [10] was 0.667, the “Fold Change, ubiquitin D (mouse Probe ID 169362_f_at)” value [10] was 1 and the “Fold Change, ubiquitin fusion degradation 1 like (mouse Probe ID 93303_at)” value [10] was 0.303. For the same substance, the “Fold Change, RAS guanyl releasing protein 1 (mouse Probe ID 98307_at)” value (S-Sal vs S-OVA group, 2nd, P/A: M) was 1.7, the “Fold Change, DEAD (aspartate-glutamate-alanine-aspartate) box polypeptide 5 (mouse Probe ID 93493_at)” value [11] was 1 and the “Fold Change, DEAD (aspartate-glutamate-alanine-aspartate) box polypeptide 5 (mouse Probe ID 113899_at)” value [11] was 0.714. The “Fold Change, RIKEN cDNA 4933419D20 gene (mouse Probe ID 97442_at)” value [11] was 1, the “Fold Change, RIKEN cDNA 4933419D20 gene (mouse Probe ID 112237_at)” value [11] was 1 and the “Fold Change, acid phosphatase 5, tartrate resistant (mouse Probe ID 98859_at)” value [11] was 1.4.
